Laboratory results reported in patent US20220380347A1, “INHIBITORS OF CYSTEINE PROTEASES AND METHODS OF USE THEREOF” (Pardes Biosciences, Inc., priority 2020, published 2022).
Like-named read-outs stand apart in the source and are kept apart here.

How the values were obtained:
229E Mpro = 229E Mpro (Human coronavirus 229E, UniProt P0C6X1); experiment: 229E Mpro enzymatic assay (standard methods, SARS-CoV2 Mpro assay given as exemplary); type: biochemical, human coronavirus (HCov) 229E
In short: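 Run by standard methods, with the SARS-CoV-2 Mpro protocol given as the model: E. coli-expressed C-His6 protease at 25 nM and substrate at 25 μM (Km 13.5 μM). Buffer pH 7.3 with 5 mM TCEP and 0.1% BSA; % inhibition versus controls fitted to variable-slope log(inhibitor)-response for IC50.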

[1] = target: COVID-19 (nCoV-2019, SARS-CoV2) Mpro (Severe acute respiratory syndrome coronavirus 2, UniProt P0DTD1); experiment: COVID-19 (nCoV-2019, SARS-CoV2) Mpro enzymatic assay; type: biochemical; conditions: 25 nM Mpro, 25 μM substrate; read-out: COVID-19 Mpro IC50
HCoV 229E = HCoV 229E cytopathic effect (CPE) assay, CellTiter Glo; type: cell-based, human coronavirus (HCov) 229E; conditions: protection of virus-induced CPE
Description: Example 238: Evaluation of antiviral activity of compounds against human coronavirus (HCov) 229E and OC43 in the cytopathic effect (CPE) assays
Compounds were assayed using standard methods against multiple coronaviral strains, including HCoV 229E and OC43 strains. The antiviral activity of compounds was calculated based on the protection of the virus-induced CPE at each concentration normalized by the virus control.
Cytopathic effect (CPE) was measured by CellTiter Glo following the manufacturer's manual. The antiviral activity of compounds was calculated based on the protection of the virus-induced CPE at each concentration normalized by the virus control.
Cell viability was measured with CellTiter Glo.

HCov OC43 = experiment: HCoV OC43 cytopathic effect (CPE) assay, CellTiter Glo; type: cell-based, human coronavirus (HCov) OC43
[2] = Betacoronavirus 1, OC43, read-out: OC43 IC50 (uM) MEDIAN, median
[3] = read-out: OC43 IC50 (uM) MEDIAN, median

Chain of 229E Mpro (P0C6X1 2966-3267): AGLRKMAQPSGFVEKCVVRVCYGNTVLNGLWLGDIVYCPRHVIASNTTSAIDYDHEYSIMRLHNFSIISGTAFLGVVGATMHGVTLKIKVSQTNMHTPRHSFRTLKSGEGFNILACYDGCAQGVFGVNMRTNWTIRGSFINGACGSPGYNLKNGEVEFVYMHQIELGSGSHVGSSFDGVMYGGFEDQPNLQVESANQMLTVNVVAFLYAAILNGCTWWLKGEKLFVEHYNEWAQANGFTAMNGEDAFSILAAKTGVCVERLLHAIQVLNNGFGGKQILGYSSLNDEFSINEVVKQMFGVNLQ

**Q.** Which EC50 (229E Mpro; 229E Mpro EC50) does the source give for `CC(C)(C)c1ccc(N(C(=O)[C@H]2C[C@@H](Oc3ccccc3)CN2C#N)C(C(=O)NC2CCCCC2)c2cccnc2)cc1` (single isomer, unassigned) [307 Isomer 1] here?
**A.** < 2000 nM

**Q.** What about the IC50 [1] of the same molecule?
**A.** < 2000 nM

**Q.** And the EC50 (HCoV 229E; unidentified human coronavirus)?
**A.** < 2000 nM

**Q.** What about the IC50 (HCov OC43; [2]) of the same molecule?
**A.** < 2 µM

**Q.** Which EC50 (229E Mpro; 229E Mpro EC50) does the source give for `Cn1cnnc1C(C(=O)NC1CCCCC1)N(C(=O)[C@H]1C[C@@H](O)CN1C#N)c1ccc(C(C)(C)C)cc1` (single isomer, unassigned) [659 Isomer 1] here?
**A.** < 2000 nM

**Q.** And the IC50 [1]?
**A.** 2000 to 10000 nM

**Q.** What about the EC50 (HCoV 229E; unidentified human coronavirus) of the same molecule?
**A.** < 2000 nM

**Q.** And the IC50 (HCov OC43; [3])?
**A.** 10 to 30 µM

**Q.** How did the EC50 (229E Mpro; 229E Mpro EC50) turn out when `CC(C)(C)O[C@@H]1C[C@H](C(=O)N(c2ccc(C(C)(C)C)cc2)C(C(=O)NC2CCCCC2)c2cccnc2)N(C#N)C1` (single isomer, unassigned) [Compound 299 Isomer 2] was run?
**A.** < 2000 nM

**Q.** What about the IC50 [1] of the same molecule?
**A.** < 2000 nM

**Q.** And the EC50 (HCoV 229E; unidentified human coronavirus)?
**A.** < 2000 nM

**Q.** What about the IC50 (HCov OC43; read-out: OC43 IC50 (uM) MEDIAN, median, listed as 299 Isomer 2) of the same molecule?
**A.** 2 to 10 µM

**Q.** Which results are given for `CO[C@@H]1C[C@H](C(=O)N(c2ccc(C(C)(C)C)cc2)C(C(=O)NC2CCCCC2)c2cccnc2)N(C#N)C1` (single isomer, unassigned) [Compound 292 Isomer 2]?
**A.** EC50 (229E Mpro; read-out: 229E Mpro EC50): < 2000 nM; IC50 [1]: < 2000 nM; EC50 (HCoV 229E; unidentified human coronavirus): < 2000 nM; IC50 (HCov OC43; [3]): < 2 µM

**Q.** Which results are given for `CC(C)(C)c1ccc(N(C(=O)[C@H]2C[C@@H](O)CN2C#N)C(C(=O)NCCN2CCOCC2)c2cccnc2)cc1` (single isomer, unassigned) [587 Isomer 2]?
**A.** EC50 (229E Mpro; read-out: 229E Mpro EC50): < 2000 nM; IC50 [1]: 2000 to 10000 nM; EC50 (HCoV 229E): 2000 to 10000 nM; IC50 (HCov OC43; [3]): 2 to 10 µM

**Q.** How did the EC50 (229E Mpro; 229E Mpro EC50) turn out when `CC(C)(C)c1ccc(N(C(=O)[C@H]2CCCN2C#N)C(C(=O)NCC(=O)N2CCOCC2)c2cccnc2)cc1` (stereo partly drawn) [Compound 403, (2R)—N-(4-(tert-butyl)phenyl)-1-cyano-N-(2-((2-morpholino-2-oxoethyl)amino)-2-oxo-1-(pyridin-3-yl)ethyl)pyrrolidine-2-carboxamide] was run?
**A.** < 2000 nM

**Q.** And the IC50 [1]?
**A.** < 2000 nM

**Q.** And the EC50 (HCoV 229E; unidentified human coronavirus)?
**A.** 2000 to 10000 nM

**Q.** What about the IC50 (HCov OC43; [2]) of the same molecule?
**A.** 2 to 10 µM

**Q.** With `CC(C)(C)c1ccc(N(C(=O)[C@H]2C[C@@H](O)CN2C#N)C(C(=O)NC2CCOCC2)c2cccnc2)cc1` (single isomer, unassigned) [619 Isomer 2] as the molecule, how does the EC50 (229E Mpro; read-out: 229E Mpro EC50) read?
**A.** < 2000 nM

**Q.** What about the IC50 [1] of the same molecule?
**A.** 2000 to 10000 nM

**Q.** And the EC50 (HCoV 229E)?
**A.** < 2000 nM

**Q.** What about the IC50 (HCov OC43; [3]) of the same molecule?
**A.** 2 to 10 µM

**Q.** Which results are given for `CC(C)(C)c1ccc(N(C(=O)[C@H]2C[C@@H](O)CN2C#N)C(C(=O)NC2CCCCC2)c2c[nH]nn2)cc1` (stereo partly drawn) [Compound 663, (2R,4R)—N-(4-(tert-butyl)phenyl)-1-cyano-N-(2-(cyclohexylamino)-2-oxo-1-(1H-1,2,3-triazol-4-yl)ethyl)-4-hydroxypyrrolidine-2-carboxamide]?
**A.** EC50 (229E Mpro; 229E Mpro EC50): < 2000 nM; IC50 [1]: 2000 to 10000 nM; EC50 (HCoV 229E; unidentified human coronavirus): < 2000 nM; IC50 (HCov OC43; [2]): 2 to 10 µM

**Q.** How did the EC50 (229E Mpro; 229E Mpro EC50) turn out when `N#CN1C[C@H](O)C[C@@H]1C(=O)N(c1ccc(C2CC2)c(F)c1)C(C(=O)NC1CCCCC1)c1cccnc1` (single isomer, unassigned) [Compound 767 Isomer 1] was run?
**A.** < 2000 nM

**Q.** And the IC50 [1]?
**A.** < 2000 nM

**Q.** And the EC50 (HCoV 229E; unidentified human coronavirus)?
**A.** 2000 to 10000 nM

**Q.** And the IC50 (HCov OC43; [2])?
**A.** < 2 µM

**Q.** Which EC50 (229E Mpro; 229E Mpro EC50) does the source give for `N#CN1C[C@H](O)C[C@@H]1C(=O)N(c1ccc(C(F)(C(F)(F)F)C(F)(F)F)cc1)C(C(=O)NC1CCCCC1)c1cccnc1` (single isomer, unassigned) [Compound 779 Isomer 1] here?
**A.** < 2000 nM

**Q.** What about the IC50 [1] of the same molecule?
**A.** < 2000 nM

**Q.** What about the EC50 (HCoV 229E; unidentified human coronavirus) of the same molecule?
**A.** 2000 to 10000 nM

**Q.** What about the IC50 (HCov OC43; [2]) of the same molecule?
**A.** < 2 µM

**Q.** Which EC50 (229E Mpro; read-out: 229E Mpro EC50) does the source give for `COCCCNC(=O)C(c1cccnc1)N(C(=O)[C@H]1C[C@@H](O)CN1C#N)c1ccc(C(C)(C)C)cc1` (single isomer, unassigned) [647 Isomer 2] here?
**A.** < 2000 nM

**Q.** What about the IC50 [1] of the same molecule?
**A.** < 2000 nM

**Q.** What about the EC50 (HCoV 229E; unidentified human coronavirus) of the same molecule?
**A.** 2000 to 10000 nM

**Q.** What about the IC50 (HCov OC43; [3]) of the same molecule?
**A.** 2 to 10 µM

**Q.** For `N#CN1C[C@H](O)C[C@@H]1C(=O)N(c1ccc(C2CC2)cc1)C(C(=O)NC1CCCCC1)c1cccnc1` (single isomer, unassigned) [723 Isomer 1], which EC50 (229E Mpro; 229E Mpro EC50) is on record?
**A.** < 2000 nM

**Q.** What about the IC50 [1] of the same molecule?
**A.** < 2000 nM

**Q.** And the EC50 (HCoV 229E; unidentified human coronavirus)?
**A.** < 2000 nM

**Q.** What about the IC50 (HCov OC43; [2]) of the same molecule?
**A.** < 2 µM

**Q.** `CC(C)(C)c1ccc(N(C(=O)[C@H]2C[C@@H](O)CN2C#N)C(C(=O)NC2CCCC2)c2cccnc2)cc1` (single isomer, unassigned) [595 Isomer 1] was tested. Which EC50 (229E Mpro; 229E Mpro EC50) did it give?
**A.** < 2000 nM

**Q.** What about the IC50 [1] of the same molecule?
**A.** 2000 to 10000 nM

**Q.** What about the EC50 (HCoV 229E; unidentified human coronavirus) of the same molecule?
**A.** 2000 to 10000 nM

**Q.** What about the IC50 (HCov OC43; [2]) of the same molecule?
**A.** 2 to 10 µM

**Q.** `CC(C)(C)c1ccc(N(C(=O)[C@H]2CCCN2C#N)C(C(=O)N2CC(F)C2)c2cccnc2)cc1` (stereo partly drawn) [Compound 952, (2R)—N-(4-(tert-butyl)phenyl)-1-cyano-N-(2-(3-fluoroazetidin-1-yl)-2-oxo-1-(pyridin-3-yl)ethyl)pyrrolidine-2-carboxamide] was tested. Which EC50 (229E Mpro; 229E Mpro EC50) did it give?
**A.** < 2000 nM

**Q.** What about the IC50 [1] of the same molecule?
**A.** 2000 to 10000 nM

**Q.** What about the EC50 (HCoV 229E; unidentified human coronavirus) of the same molecule?
**A.** 2000 to 10000 nM

**Q.** And the IC50 (HCov OC43; [2])?
**A.** 2 to 10 µM
